Experiments:
[1] = target: T1, BRD4 Bromodomain 1 (BRD4 BD1) (Homo sapiens, UniProt O60885); test: AlphaScreen binding assay, BRD4 BD1; conditions: His-tagged BRD4 BD1 50 nM, biotinylated H4 (1-21) K5/8/12/16 tetra-acetylated peptide 50 nM, compounds listed under IC50 range headings
T1 construct: 44-168 and BRD4 BD2
Procedure, shortened: (§1)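 An AlphaScreen competition format was used with His-BRD4 BD1 or BD2 and biotin-H4 K5/8/12/16-acetyl peptide, each at matched final levels of 50 nM (BD1) or 100 nM (BD2). Incubation in HEPES/NaCl buffer with 0.1% BSA and 0.01% Triton X-100 ran ≥1 h before IC50 determination.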

[2] = target: T2, BRD4 Bromodomain 2 (BRD4 BD2) (Homo sapiens, UniProt O60885); test: AlphaScreen binding assay, BRD4 BD2; conditions: His-tagged BRD4 BD2 100 nM, biotinylated H4 (1-21) K5/8/12/16 tetra-acetylated peptide 100 nM, compounds listed under IC50 range headings
T2 construct: 333-460 were cloned, expressed, and purified to homogeneity
Procedure, shortened: as §1

[3] = system: acute myelocytic leukemia (AML) cell line MV4-11; test: Oncology cell growth assay (3-day proliferation, CellTiter-Glo); type: cell-based; conditions: Homo sapiens, MV4-11, 72 h, MV4-11 cells, 3000 cells/well, compounds listed under IC50 range headings, read-out: MV411 IC50 (gIC50, inhibition of proliferation)
Procedure, shortened: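 Compounds were serially diluted 3-fold in DMSO, giving final well concentrations from 10 down to 0.0045 μM. MV4-11 cells were then seeded at 3000 cells/well in RPMI 1640 with 10% FBS and incubated 72 hours. CellTiter-Glo signal was measured and gIC50 obtained by four-parameter logistic regression.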

Row | Compound | IC50 [1] [nM] | IC50 [2] [nM] | IC50 [3] [nM]
1 | COC(=O)N1c2ccc(-c3cnn(CC(C)(C)O)c3)c(Oc3ncc(C4CC4)cn3)c2CC[C@@H]1C [I-571] | 1000 to 10000 | 50 to 500 | 500 to 1000
2 | COC(=O)N1c2ccc(-c3cnn(CCS(C)(=O)=O)c3)c(Oc3ccc(C(F)(F)F)cn3)c2CC[C@@H]1C [I-554] | 1000 to 10000 | 50 to 500 | > 1000
3 | CC(=O)N1c2ccc(-c3cnn(C4CCNCC4)c3)c(Oc3ncccc3C(F)(F)F)c2CC[C@@H]1C [I-141, (S)-1-(2-methyl-6-(1-(piperidin-4-yl)-1H-pyrazol-4-yl)-5-(3-(trifluoromethyl)pyridin-2-yloxy)-3,4-dihydroquinolin-1(2H)-yl)ethanone] | 100 to 1000 | < 50 | < 500
4 | CC(=O)N1c2ccc(-c3cnn(C4CCNCC4)c3)c(OCC(=O)N3CCCC3)c2CC[C@@H]1C [I-431] | 100 to 1000 | 50 to 500 | 500 to 1000
5 | CC(=O)N1c2ccc(-c3ccc(S(C)(=O)=O)cc3)c(Oc3ncc(F)cn3)c2CC[C@@H]1C [I-549] | 1000 to 10000 | 50 to 500 | 500 to 1000
6 | CC(=O)N1c2ccc(-c3cnn(C4CC4)c3)c(OC3CC3)c2CC[C@@H]1C [I-113, (S)-1-(5-cyclopropoxy-6-(1-cyclopropyl-1H-pyrazol-4-yl)-2-methyl-3,4-dihydroquinolin-1(2H)-yl)ethanone] | 100 to 1000 | 50 to 500 | < 500
7 | CCCOc1c(-c2nc3ccccc3[nH]2)ccc2c1CC[C@H](C)N2C(C)=O [I-121, (S)-1-(6-(1H-benzo[d]imidazol-2-yl)-2-methyl-5-propoxy-3,4-dihydroquinolin-1(2H)-yl)ethanone] | 1000 to 10000 | 50 to 500 | 500 to 1000
8 | COC(=O)N1c2ccc(-c3cnn(C4CC4)c3)c(Oc3cnccn3)c2CC[C@@H]1C [I-561] | 1000 to 10000 | 50 to 500 | 500 to 1000
9 | CC(=O)N1c2ccc(-c3cnn(C4CC4)c3)c(Oc3ncc(C)cn3)c2CC[C@@H]1C [I-92, (S)-1-(6-(1-cyclopropyl-1H-pyrazol-4-yl)-2-methyl-5-(5-methylpyrimidin-2-yloxy)-3,4-dihydroquinolin-1 (2H)-yl)ethanone] | 100 to 1000 | < 50 | < 500
10 | CC(=O)N1c2ccc(-c3cnn(C4CC4)c3)c(OCCN3CCCC3=O)c2CC[C@@H]1C [I-42, (S)-1-(2-(1-acetyl-6-(1-cyclopropyl-1H-pyrazol-4-yl)-2-methyl-1,2,3,4-tetrahydroquinolin-5-yloxy)ethyl)pyrrolidin-2-one] | 100 to 1000 | 50 to 500 | > 1000
11 | COCCOc1c(-c2cnn(C3CC3)c2)ccc2c1CC[C@H](C)N2C(C)=O [I-398] | 100 to 1000 | 50 to 500 | 500 to 1000
12 | COC(=O)N1c2ccc(-c3cnn(CCO)c3)c(Oc3cnccn3)c2CC[C@@H]1C [I-560] | 1000 to 10000 | 50 to 500 | 500 to 1000
13 | C[C@H]1CCc2c(ccc(-c3cnn(C4CCNCC4)c3)c2Oc2ccc(F)cc2)N1C(=O)C1CC1 [I-164, (S)-cyclopropyl(5-(4-fluorophenoxy)-2-methyl-6-(1-(piperidin-4-yl)-1H-pyrazol-4-yl)-3,4-dihydroquinolin-1 (2H)-yl)methanone] | 100 to 1000 | < 50 | < 500
14 | COC(=O)N1c2ccc(-c3cnn(C4CCNCC4)c3)c(Oc3ccc(F)cc3C#N)c2CC[C@@H]1C [I-133, (S)-methyl 5-(2-cyano-4-fluorophenoxy)-2-methyl-6-(1-(piperidin-4-yl)-1H-pyrazol-4-yl)-3,4-dihydroquinoline-1(2H)-carboxylate] | 100 to 1000 | < 50 | < 500
15 | COC(=O)N1c2ccc(-c3cnn(C4CNC4)c3)c(Oc3cccc(F)c3C#N)c2CC[C@@H]1C [I-139, (S)-methyl 6-(1-(azetidin-3-yl)-1H-pyrazol-4-yl)-5-(2-cyano-3-fluorophenoxy)-2-methyl-3,4-dihydroquinoline-1(2H)-carboxylate] | 100 to 1000 | < 50 | < 500

Reference: patent publication US10611750B2, “Tetrahydroquinoline compositions as bet bromodomain inhibitors” (FORMA Therapeutics, Inc., priority 2013, dated 2020)
